According to publication PMC5218480 (PLoS ONE, 2017):

Test system: MV-4-11 cells
Experiment: Gene expression microarray analysis (Affymetrix PrimeView) and GSEA
Type: cell-based, human
Set-up: RFU PODN (11730768_x_at) / Fold change /veh PODN (11730768_x_at) / RFU LINC00158 (11744669_a_at) / Fold change /veh LINC00158 (11744669_a_at) / RFU DUSP10 (11751237_a_at) / Fold change /veh DUSP10 (11751237_a_at) / RFU ID3 (11757404_x_at) / Fold change /veh ID3 (11757404_x_at) / RFU PLEKHG5 (11737974_s_at) / Fold change /veh PLEKHG5 (11737974_s_at) / RFU LRRC4B (11730491_at) / Fold change /veh LRRC4B (11730491_at) / RFU GIMAP4 (11747438_a_at) / Fold change /veh GIMAP4 (11747438_a_at) / RFU KRT8 (11758183_x_at) / Fold change /veh KRT8 (11758183_x_at) / RFU CNN1 (11734310_a_at) / Fold change /veh CNN1 (11734310_a_at) / RFU VPS37D (11726825_at) / Fold change /veh VPS37D (11726825_at) / RFU C10orf10 (11716522_x_at) / Fold change /veh C10orf10 (11716522_x_at) / RFU KIR2DL2 /// KIR2DL4 /// KIR2DL5A /// KIR2DL5B /// KIR2DS1 /// KIR2DS2 /// KIR2DS3 /// KIR2DS4 /// KIR3DL3 /// KIR3DL3 /// KIR3DS1 (11738374_at) / Fold change /veh KIR2DL2 /// KIR2DL4 /// KIR2DL5A /// KIR2DL5B /// KIR2DS1 /// KIR2DS2 /// KIR2DS3 /// KIR2DS4 /// KIR3DL3 /// KIR3DL3 /// KIR3DS1 (11738374_at) / RFU C1QL1 (11718748_at) / Fold change /veh C1QL1 (11718748_at) / RFU TMPRSS4 (11747572_a_at) / Fold change /veh TMPRSS4 (11747572_a_at) / RFU HAMP (11756126_x_at) / Fold change /veh HAMP (11756126_x_at) / RFU RNFT2 (11725882_a_at) / Fold change /veh RNFT2 (11725882_a_at) / RFU NR4A2 (11747474_a_at) / Fold change /veh NR4A2 (11747474_a_at) / RFU ABCC12 (11746883_a_at) / Fold change /veh ABCC12 (11746883_a_at) / RFU TMEM136 (11760407_x_at) / Fold change /veh TMEM136 (11760407_x_at) / RFU CLDN22 /// WWC2 (11732394_at) / Fold change /veh CLDN22 /// WWC2 (11732394_at) / RFU HLA-DPB1 (11760878_x_at) / Fold change /veh HLA-DPB1 (11760878_x_at) / RFU SPINT1 (11716480_a_at) / Fold change /veh SPINT1 (11716480_a_at) / RFU GAP43 (11754022_s_at) / Fold change /veh GAP43 (11754022_s_at) / RFU A4GNT (11735810_at) / Fold change /veh A4GNT (11735810_at) / RFU PRB3 (11715151_x_at) / Fold change /veh PRB3 (11715151_x_at) / RFU TUBB4B (11761932_at) / Fold change /veh TUBB4B (11761932_at) / RFU CAPN14 (11732068_a_at) / Fold change /veh CAPN14 (11732068_a_at) / RFU TMCC2 (11721928_a_at) / Fold change /veh TMCC2 (11721928_a_at) / RFU IRGQ (11745062_a_at) / Fold change /veh IRGQ (11745062_a_at) / RFU FAM174B (11720279_a_at) / Fold change /veh FAM174B (11720279_a_at) / RFU TMPRSS4 (11748680_a_at) / Fold change /veh TMPRSS4 (11748680_a_at) / RFU FAM212B (11763350_a_at) / Fold change /veh FAM212B (11763350_a_at) / RFU PLEKHG5 (11743358_a_at) / Fold change /veh PLEKHG5 (11743358_a_at) / RFU ZSCAN30 (11745921_a_at) / Fold change /veh ZSCAN30 (11745921_a_at) / RFU CMKLR1 (11741424_a_at) / Fold change /veh CMKLR1 (11741424_a_at) / RFU LOC101060620 /// MAPK8IP1 (11723275_at) / Fold change /veh LOC101060620 /// MAPK8IP1 (11723275_at) / RFU SPTSSB (11747773_x_at) / Fold change /veh SPTSSB (11747773_x_at) / RFU PRSS12 (11739890_at) / Fold change /veh PRSS12 (11739890_at) / RFU BIN1 (11741810_x_at) / Fold change /veh BIN1 (11741810_x_at) / RFU WNT11 (11732464_a_at) / Fold change /veh WNT11 (11732464_a_at) / RFU C10orf10 (11716521_a_at) / Fold change /veh C10orf10 (11716521_a_at) / RFU C5orf56 (11738089_at) / Fold change /veh C5orf56 (11738089_at) / RFU CYB561 (11721691_x_at) / Fold change /veh CYB561 (11721691_x_at) / RFU ANKRD19P (11752326_a_at) / Fold change /veh ANKRD19P (11752326_a_at) / RFU OR2T12 /// OR2T33 /// OR2T8 (11738714_s_at) / Fold change /veh OR2T12 /// OR2T33 /// OR2T8 (11738714_s_at) / RFU VCAN (11748164_a_at) / Fold change /veh VCAN (11748164_a_at) / RFU JSRP1 (11732532_at) / Fold change /veh JSRP1 (11732532_at) / RFU KRTAP10-11 (11738290_x_at) / Fold change /veh KRTAP10-11 (11738290_x_at) / RFU MYO3A (11730013_a_at) / Fold change /veh MYO3A (11730013_a_at) / RFU EBF3 (11725865_a_at) / Fold change /veh EBF3 (11725865_a_at) / RFU CAMK2N1 (11719241_x_at) / Fold change /veh CAMK2N1 (11719241_x_at) / RFU C5orf56 (11738088_a_at) / Fold change /veh C5orf56 (11738088_a_at) / RFU OLFML3 (11715873_a_at) / Fold change /veh OLFML3 (11715873_a_at) / RFU LOC100653217 /// NTM (11731650_a_at) / Fold change /veh LOC100653217 /// NTM (11731650_a_at) / RFU MAPK11 (11762145_a_at) / Fold change /veh MAPK11 (11762145_a_at) / RFU FIZ1 (11724087_x_at) / Fold change /veh FIZ1 (11724087_x_at) / RFU OASL (11726364_x_at) / Fold change /veh OASL (11726364_x_at) / RFU SOX15 (11748057_x_at) / Fold change /veh SOX15 (11748057_x_at) / RFU CD79A (11719716_a_at) / Fold change /veh CD79A (11719716_a_at) / RFU HIST1H1D (11736915_at) / Fold change /veh HIST1H1D (11736915_at) / RFU CASKIN2 (11723855_a_at) / Fold change /veh CASKIN2 (11723855_a_at) / RFU LOC730098 (11760151_x_at) / Fold change /veh LOC730098 (11760151_x_at) / RFU OR4N2 (11742367_at) / Fold change /veh OR4N2 (11742367_at) / RFU PRRT2 (11749266_a_at) / Fold change /veh PRRT2 (11749266_a_at) / RFU SNX32 (11753110_a_at) / Fold change /veh SNX32 (11753110_a_at) / RFU CDHR5 (11726645_a_at) / Fold change /veh CDHR5 (11726645_a_at) / RFU RCAN1 (11760418_a_at) / Fold change /veh RCAN1 (11760418_a_at) / RFU FAM167A (11723789_a_at) / Fold change /veh FAM167A (11723789_a_at) / RFU FAM26E (11764081_at) / Fold change /veh FAM26E (11764081_at) / RFU ISYNA1 (11749810_s_at) / Fold change /veh ISYNA1 (11749810_s_at) / RFU ACY1 (11761880_at) / Fold change /veh ACY1 (11761880_at) / RFU 11764098_at / Fold change /veh 11764098_at / RFU SAMD14 (11745864_x_at) / Fold change /veh SAMD14 (11745864_x_at) / RFU NPB (11741838_a_at) / Fold change /veh NPB (11741838_a_at) / RFU TMPRSS6 (11731388_a_at) / Fold change /veh TMPRSS6 (11731388_a_at) / RFU KRTAP10-2 (11738614_at) / Fold change /veh KRTAP10-2 (11738614_at) / RFU ARHGAP8 /// PRR5-ARHGAP8 (11727945_x_at) / Fold change /veh ARHGAP8 /// PRR5-ARHGAP8 (11727945_x_at) / RFU KRTAP5-7 /// NADSYN1 (11734609_at) / Fold change /veh KRTAP5-7 /// NADSYN1 (11734609_at) / RFU RASL12 (11751679_a_at) / Fold change /veh RASL12 (11751679_a_at) / RFU CDKN2B (11736163_a_at) / Fold change /veh CDKN2B (11736163_a_at) / RFU PRF1 (11729649_at) / Fold change /veh PRF1 (11729649_at) / RFU, ZNF638 /// ZNF638-IT1 / Fold change vs veh, ZNF638 /// ZNF638-IT1 / RFU, PANK3 / Fold change vs veh, PANK3 / RFU, SH3YL1 / Fold change vs veh, SH3YL1 / RFU, ZEB2 / Fold change vs veh, ZEB2 / RFU, NRIP1 / Fold change vs veh, NRIP1 / RFU, PTTG1IP / Fold change vs veh, PTTG1IP / RFU, CAPN2 / Fold change vs veh, CAPN2 / RFU, MED14 / Fold change vs veh, MED14 / RFU, SNORA58 / Fold change vs veh, SNORA58 / RFU, C1orf63 / Fold change vs veh, C1orf63 / RFU, LRRFIP1 / Fold change vs veh, LRRFIP1 / RFU, NDUFAF7 / Fold change vs veh, NDUFAF7 / RFU, SLC12A2 / Fold change vs veh, SLC12A2 / RFU, IBTK / Fold change vs veh, IBTK / RFU, ESF1 / Fold change vs veh, ESF1 / Fold change vs veh, TMEM50B / RFU, TAOK1 / Fold change vs veh, TAOK1 / RFU, ACBD3 / Fold change vs veh, ACBD3 / RFU, TMA16 / Fold change vs veh, TMA16 / RFU, RWDD3 / Fold change vs veh, RWDD3 / RFU, BCAT1 / Fold change vs veh, BCAT1 / RFU, EDEM3 / Fold change vs veh, EDEM3 / RFU, TMEM33 / Fold change vs veh, TMEM33 / RFU, WDR75 / Fold change vs veh, WDR75 / RFU, AHCTF1 / Fold change vs veh, AHCTF1 / RFU, TFRC / Fold change vs veh, TFRC / RFU, ZDHHC17 / Fold change vs veh, ZDHHC17 / RFU, NOM1 / Fold change vs veh, NOM1 / RFU, ARL8B / Fold change vs veh, ARL8B / RFU, ZBTB11 / Fold change vs veh, ZBTB11 / RFU, TAMM41 / Fold change vs veh, TAMM41 / RFU, KIAA1704 /// LOC100996395 / Fold change vs veh, KIAA1704 /// LOC100996395 / RFU, ING1 / Fold change vs veh, ING1 / RFU, TRMT61B / Fold change vs veh, TRMT61B / RFU, FUBP3 / Fold change vs veh, FUBP3 / RFU, TP53 / Fold change vs veh, TP53 / RFU, TNKS2 / Fold change vs veh, TNKS2 / RFU, ZFP14 / Fold change vs veh, ZFP14 / RFU, ACTR2 / Fold change vs veh, ACTR2 / RFU, PPP3R1 / Fold change vs veh, PPP3R1 / RFU, PIK3R1 / Fold change vs veh, PIK3R1 / RFU, HNRNPA1 / Fold change vs veh, HNRNPA1 / RFU, RNF170 / Fold change vs veh, RNF170 / RFU, ZNF28 / Fold change vs veh, ZNF28 / RFU, RNGTT / Fold change vs veh, RNGTT / RFU, OGT / Fold change vs veh, OGT / RFU, BRD1 / Fold change vs veh, BRD1 / RFU, MARS / Fold change vs veh, MARS / RFU, ZNF655 / Fold change vs veh, ZNF655 / RFU, FAHD1 / Fold change vs veh, FAHD1 / RFU, BDP1 / Fold change vs veh, BDP1 / RFU, LRRCC1 / Fold change vs veh, LRRCC1 / RFU, ARID1A / Fold change vs veh, ARID1A / RFU, ZNF146 / Fold change vs veh, ZNF146 / RFU, ZNF330 / Fold change vs veh, ZNF330 / RFU, GPN3 / Fold change vs veh, GPN3 / RFU, C9orf123 / Fold change vs veh, C9orf123 / RFU, N4BP2L2 / Fold change vs veh, N4BP2L2 / RFU, ARFIP1 / Fold change vs veh, ARFIP1 / RFU, FAM179B / Fold change vs veh, FAM179B / RFU, BCL10 / Fold change vs veh, BCL10 / RFU, UHRF1BP1L / Fold change vs veh, UHRF1BP1L / RFU, BET1 / Fold change vs veh, BET1 / RFU, CNOT2 / Fold change vs veh, CNOT2 / RFU, ZNF268 / Fold change vs veh, ZNF268 / Fold change vs veh, ZNF507 / RFU, DGCR2 / Fold change vs veh, DGCR2 / RFU, WDSUB1 / Fold change vs veh, WDSUB1 / Fold change vs veh, HSP90B1 /// MIR3652 / RFU, ADSS / Fold change vs veh, ADSS / RFU, GK / Fold change vs veh, GK / RFU, ZNF148 / Fold change vs veh, ZNF148 / RFU, TAF9 / Fold change vs veh, TAF9 / RFU, SLC1A5 / Fold change vs veh, SLC1A5 / RFU, SLMO2 / Fold change vs veh, SLMO2 / RFU, ABCC4 / Fold change vs veh, ABCC4 / RFU, LOC101060439 /// RAP1B / Fold change vs veh, LOC101060439 /// RAP1B / RFU, RFX7 / Fold change vs veh, RFX7 / RFU, GTPBP10 / Fold change vs veh, GTPBP10 / RFU, CNEP1R1 / Fold change vs veh, CNEP1R1 / RFU, BIVM-ERCC5 /// ERCC5 / Fold change vs veh, BIVM-ERCC5 /// ERCC5 / RFU, ILF3 / Fold change vs veh, ILF3 / RFU 11762660_at / Fold change /veh 11762660_at / RFU VCAN (11757783_s_at) / Fold change /veh VCAN (11757783_s_at) / RFU DDX43 (11728927_at) / Fold change /veh DDX43 (11728927_at) / RFU KRT8 (11758188_x_at) / Fold change /veh KRT8 (11758188_x_at) / RFU NKD1 (11759106_at) / Fold change /veh NKD1 (11759106_at) / RFU SRD5A1 (11742802_a_at) / Fold change /veh SRD5A1 (11742802_a_at) / RFU TPSAB1 /// TPSB2 (11721975_s_at) / Fold change /veh TPSAB1 /// TPSB2 (11721975_s_at) / RFU GSTM3 (11746129_a_at) / Fold change /veh GSTM3 (11746129_a_at) / RFU IL23R (11737362_x_at) / Fold change /veh IL23R (11737362_x_at) / RFU TMEM51 (11727254_a_at) / Fold change /veh TMEM51 (11727254_a_at) / RFU PIWIL2 (11732686_x_at) / Fold change /veh PIWIL2 (11732686_x_at) / RFU ORM1 (11744905_x_at) / Fold change /veh ORM1 (11744905_x_at) / RFU CCDC152 (11743942_at) / Fold change /veh CCDC152 (11743942_at) / RFU ECM1 (11717891_a_at) / Fold change /veh ECM1 (11717891_a_at) / RFU IL23R (11748794_a_at) / Fold change /veh IL23R (11748794_a_at) / RFU TNFAIP8L3 (11732012_x_at) / Fold change /veh TNFAIP8L3 (11732012_x_at) / RFU MBOAT4 (11741988_at) / Fold change /veh MBOAT4 (11741988_at) / RFU 11764193_at / Fold change /veh 11764193_at / RFU TMEM53 (11763286_at) / Fold change /veh TMEM53 (11763286_at) / RFU MAGEB2 (11727129_at) / Fold change /veh MAGEB2 (11727129_at) / RFU TMEM200A (11744735_a_at) / Fold change /veh TMEM200A (11744735_a_at) / RFU CCDC152 (11751479_a_at) / Fold change /veh CCDC152 (11751479_a_at) / RFU FAM211A (11726209_a_at) / Fold change /veh FAM211A (11726209_a_at) / RFU RGS16 (11746705_a_at) / Fold change /veh RGS16 (11746705_a_at) / RFU VCAN (11755009_s_at) / Fold change /veh VCAN (11755009_s_at) / RFU RHOB (11743442_s_at) / Fold change /veh RHOB (11743442_s_at) / RFU RGS16 (11720943_a_at) / Fold change /veh RGS16 (11720943_a_at) / RFU RGS16 (11720944_at) / Fold change /veh RGS16 (11720944_at) / RFU, VPS4B / Fold change vs veh, VPS4B / RFU, CREB1 / Fold change vs veh, CREB1 / RFU, DNAJC13 / Fold change vs veh, DNAJC13 / RFU, GNAQ / Fold change vs veh, GNAQ / RFU, CDK5R1 / Fold change vs veh, CDK5R1 / RFU, ZRANB3 / Fold change vs veh, ZRANB3 / RFU, CUL4A / Fold change vs veh, CUL4A / RFU, CCNY / Fold change vs veh, CCNY / RFU, UFL1 / Fold change vs veh, UFL1 / RFU, COG3 / Fold change vs veh, COG3 / RFU, DIAPH2 / Fold change vs veh, DIAPH2 / RFU, SKA2 / Fold change vs veh, SKA2 / RFU, AFF3 / Fold change vs veh, AFF3 / RFU, LMF1 / Fold change vs veh, LMF1 / RFU, IPO11 / Fold change vs veh, IPO11 / RFU, DFFB / Fold change vs veh, DFFB / RFU, FOXP1 / Fold change vs veh, FOXP1 / RFU, CARD8 / Fold change vs veh, CARD8 / RFU, STRN3 / Fold change vs veh, STRN3 / RFU, ADK / Fold change vs veh, ADK / RFU, RASSF2 / Fold change vs veh, RASSF2 / RFU, WIPF1 / Fold change vs veh, WIPF1 / RFU, LARP1B / Fold change vs veh, LARP1B / RFU, RASA1 / Fold change vs veh, RASA1 / RFU, RB1 / Fold change vs veh, RB1 / RFU, PPFIA1 / Fold change vs veh, PPFIA1 / RFU, MAT2A / Fold change vs veh, MAT2A / RFU, CCT5 / Fold change vs veh, CCT5 / RFU, WDR92 / Fold change vs veh, WDR92 / RFU, CUX1 / Fold change vs veh, CUX1 / RFU, TTC7A / Fold change vs veh, TTC7A / RFU, TMEM135 / Fold change vs veh, TMEM135 / RFU, DEPTOR / Fold change vs veh, DEPTOR / RFU, CPM / Fold change vs veh, CPM / RFU, DNAJB6 / Fold change vs veh, DNAJB6 / RFU, CACNA2D3 / Fold change vs veh, CACNA2D3 / RFU, DTX4 / Fold change vs veh, DTX4 / RFU, TFCP2 / Fold change vs veh, TFCP2 / RFU, GMCL1 /// GMCL1P1 / Fold change vs veh, GMCL1 /// GMCL1P1 / RFU, AEBP2 / Fold change vs veh, AEBP2 / RFU, SNHG1 /// SNORD22 /// SNORD25 /// SNORD26 /// SNORD27 /// SNORD28 /// SNORD29 /// SNORD31 / Fold change vs veh, SNHG1 /// SNORD22 /// SNORD25 /// SNORD26 /// SNORD27 /// SNORD28 /// SNORD29 /// SNORD31 / Fold change (Aza/veh), C12orf56 (ProbeSet 11735607_a_at) / Fold change (ACY-1035/veh), C12orf56 (ProbeSet 11735607_a_at) / Fold change (Aza/veh), FGFR1OP (ProbeSet 11751329_s_at) / Fold change (ACY-1035/veh), FGFR1OP (ProbeSet 11751329_s_at) / Fold change (Aza/veh), VPS36 (ProbeSet 11739960_a_at) / Fold change (ACY-1035/veh), VPS36 (ProbeSet 11739960_a_at) / RFU SYPL1 (11715823_x_at) / Fold change /veh SYPL1 (11715823_x_at) / RFU IGFBP7 (11715501_s_at) / Fold change /veh IGFBP7 (11715501_s_at) / RFU REEP3 (11722064_at) / Fold change /veh REEP3 (11722064_at) / RFU IGLL1 (11728026_x_at) / Fold change /veh IGLL1 (11728026_x_at): dose or concentration left out as unconfirmed
Conditions: ProbeSet 11726703_a_at; LIST B

Nc1ccc(-c2cccs2)cc1NC(=O)c1ccc2c(c1)cc(C1CC1)n2CCN1CCOCC1 [ACY-1035]
RFU, BCL10: 67.93 RFU
